The record followed here is patent US4871758A, “Pharmacologically active cholinergic compositions, and methods for making same and use thereof in treating disease” (priority 1987, dated 1989).

Structures can show the parent of a compound that is named as a salt.

Assay [1] has as its system guinea-pig trachea muscle. As to the kind of experiment: guinea-pig trachea contraction. The conditions noted are these: muscles have essentially M2 receptors.
Assay [2] relates to M1 receptors on the intramural inhibitory neurons. As to the kind of experiment: lower esophageal sphincter pressure assay in anaesthetized opossum. In kind it is in vivo. On the procedure:
The compound (I) obtained according to Example 2 was tested by assay on the lower esophageal sphincter of an opossum anaesthetized with sodium phenobarbitol. In carrying out the assay, the lower esophageal sphincter located between the esophagus and the stomach remains in a state of tonic contraction; therefore, a pressure sensing (manometric) catheter introduced from the animal's mouth into the lumen monitors lower esophageal sphincter pressures by registering a sustained high pressure zone, due to the lumen's myogenic contraction which is independent of neural or hormonal influences. Neural activity and hormones can increase or decrease the sphincter pressure and both excitatory and inhibitory influences can be readily detected.
The intraluminal pressures from the lower esophageal sphincter, esophageal body and the stomach are continuously monitored using a low compliance, waterfilled and continuously perfused catheter anchored in the lower esophageal sphincter so that artifacts due to axial motion can be minimized. See Goyal et al., Gastroenterology, 71, 62-7 (1976). All animals receive bilateral cervical vagotomy to eliminate vagally mediated changes in the sphincter pressure. Nerves to the sphincter are stimulated electrically by electrodes which are either applied to the distal end of the cut vagus nerve or applied intramurally in the sphincter. See Goyal et al., supra, and Rattan et al., Am. J. Physiol., 234, E272-E276 (1978). Reflex relaxation of the sphincter is produced by distension of the esophagus with an intraluminal balloon. Drugs are administered in the arterial supply of the lower esophageal sphincter. This is done by opening the abdominal cavity and cannulating the artery that leads to the lower esophageal sphincter. The compound is injected into the blood supply of the lower esophageal sphincter and its effect therein is determined. The animal's vital signs are monitored and blood pressure is maintained with intravenous infusion of saline. Some drugs are administered intravenously.
In summary, the above-described model permits identification of muscarinic agonists and antagonists in a physiological system.

Where [3] appears, read: lower esophageal sphincter, anaesthetized opossum.

For the compound `Cc1ccc(-c2cncn2C)o1` [Compound I, 1-(N-methyl)-5-(5'-methyl-2'-furyl)imidazole, Hydrochloride], the “potency in contracting the trachea muscle” value in assay [1] is given as “virtually no potency”. In addition, the M1 receptor selectivity result in assay [2] (M1 versus M2, from sphincter and trachea results) is listed as “highly selective for M1 receptors”. Further, in assay [2] (atropine), the “blockade of activity by antagonist” value is reported as “blocked by atropine”. Besides, the agonist type entry in assay [2] (inferred from 80% of full agonist activity) is reported as “partial agonist”. In assay [2] (setting [3]), the “dosage giving peak effect” value is on record as 10^-6 mole/kg and the threshold dosage is given as 10^-8 mole/kg. Moreover, the “muscarinic receptor subtype effects” value in assay [2] (lower esophageal sphincter, anaesthetized opossum, injected into arterial supply of the sphincter) is “only M1 effects”.
